Measurements as given in patent US20240109914A1, “IMIDAZOTHIAZOLE COMPOUNDS AND ANALOGS THEREOF AND METHODS FOR TREATING NEMATODE INFECTIONS IN PLANTS” (The Governing Council of The University of Toronto, priority 2021, published 2024).
Read-outs that look alike come from different tables or passages of the source.

Experiments:
[1] = tested on: tomato plants; assay: Root mass of tomato plants in the soil infectivity assay; conditions: 45 μM in soil, 8 weeks
Method: For the infectivity assays, 90 grams of soil (1:1 sand:loam mix) was added to each cell of several 6-cell plastic garden packs. The soil was drenched with 18 mL of deionized water containing dissolved test compound or DMSO alone. 2,500 infective J2 juveniles were then added to the soil in 2 mL of deionized water, for a total water volume of 20 mL. […] The DMSO concentration varied from 0.1% to 0.8% (v/v) depending on the stock concentration of the test compound. The highest DMSO concentration was used as the DMSO control. The J2s were incubated in the soil and chemical for 24 hours, after which two- to three-week old tomato seedlings were transplanted into the soil (one plant per cell). Two replicates were performed for each chemical treatment, and four replicates were done for the DMSO controls. The whole experiment was replicated twice, in two different batches on two different days, for a total of four replicates for each test compound treatment, and eight replicates for the DMSO controls. Inoculated plants were grown for 8 weeks in a greenhouse, as described^47, under long-day conditions (16-h photoperiod) with 26/18° C. day/night temperatures. After 8 weeks, the plants were destructively harvested. The tops were removed and discarded, and roots were gently washed with water to remove adhering soil. Eggs were extracted by placing rinsed roots in 0.6% sodium hypochlorite and agitating at 300 rpm for 3 min. Roots were then rinsed over nested 250—and 25.4-μm sieves, with eggs collected from the latter and suspended in water. Roots were dried in a 65° C. oven for at least 24 hours, after which dry roots were weighed. The number of eggs from each plant root was counted on a dissection microscope using a haemocytometer, and the number of eggs per milligram of root was calculated by dividing the total egg number by the mass of the dried root material. An average was taken across the replicates performed on the same day, and then normalized to the DMSO control average. […] An average percent effectiveness value was then calculated across the two different batches carried out on different days.

[2] = tested on: M. hapla eggs; assay: Meloidogyne hapla in vitro egg hatch assay; assay type: in vivo; conditions: 45 μM; for Number of Hatched Eggs: 8 days at room temperature, about 90 eggs per well, tested once; for Number of Hatched Eggs z-score: 8 days, z-score vs 8 untreated DMSO wells
Method: The M. hapla were originally obtained from a soil sample of muck soil from Ste-Clotilde, Quebec, Canada. Using tweezers, egg masses were carefully removed from root material from infested carrot roots. Eggs were liberated from the egg masses using a mild sodium hypochlorite bleaching protocol, whereby egg masses were bleached with a 10% commercial bleach (sodium hypochlorite) solution for 4 minutes with vigorous shaking, and then washed 5 times with deionized water. 50 μL of deionized water was added to each well of two 96-well polystyrene culture plates, and 0.5 μL of chemical (or DMSO alone) was added to each well. Approximately 90 eggs were added to each well in 49.5 ul of deionized water. The plates were sealed with parafilm and incubated for 8 days at room temperature without shaking in a Tupperware box filled with wet paper towels. After the 8-day incubation, the number of hatched eggs was counted for each treatment and for the untreated controls. Each chemical treatment was tested only once. 8 separate untreated DMSO controls were included in the experiment. The z-score for each treatment was calculated using the mean and standard deviation of the untreated DMSO control wells.

[3] = tested on: M. incognita J2 larvae; assay: Meloidogyne incognita in vitro larval mobility assay; assay type: in vivo; conditions: 45 μM, 4 days; for Replicate 1 z-score / Replicate 2 z-score: z-score vs untreated DMSO wells; for pest or weed control at 45 µM: Meloidogyne incognita, 96 h
How it was run: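 Infective J2 juveniles of M. incognita Race 1, about 35 per well, were exposed to compound at 45 μM in deionized water with 0.5% DMSO for 4 days at 25° C without shaking. Immobile worms were counted as % of total, averaged over two replicates. A z-score against DMSO control wells was also computed, with z > 1.645 in both replicates marking a hit.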

[4] = tested on: C. elegans; assay: C. elegans dose-response (viability, minimum lethal concentration); assay type: in vivo, Caenorhabditis elegans; conditions: Caenorhabditis elegans, 72 h, L1 worms, 3 days at 20° C.
Method: Forty microliters of an HB101 E. coli bacterial suspension in liquid NGM (nematode growth media—see ref. 42 for the recipe) was added to each well of a 96-well flat-bottom culture plate, after which approximately 25 synchronized L1 worms, in 10 μl of M9 buffer (see ref. 43 for the recipe), were added to each well. The synchronized L1 worms were obtained from an embryo preparation performed the previous day (see ref. 43 for the protocol). For the L1 assays, 0.5 μl of test compound solution (or DMSO alone) was immediately added to the wells using a multichannel pipette; the final DMSO concentration is 1% (v/v). The worms were incubated for 3 days at 20° C. and the number of viable animals was counted.
At least three biological replicates were performed for each dose-response assay. For each biological replicate, two technical replicates were performed and the numbers of viable animals for each technical replicate were combined (i.e. ˜ 50 worms assayed per concentration). The number of viable worms at each concentration was divided by the corresponding DMSO control value to give the “relative viability” for each concentration. The “relative viability” values were then averaged across the biological replicates. Minimum lethal concentration was defined as the lowest concentration at which at least 20% of worms die.

[5] = tested on: M. incognita; assay: Meloidogyne incognita infectivity assay (soil, tomato roots); assay type: in vivo; conditions: Meloidogyne incognita, 1344 h, 45 μM in soil, 8 weeks, eggs per mg root relative to DMSO control, read-out: % effectiveness at inhibiting reproduction of M. incognita
Text: An M. incognita population originally collected from grape (Vitis vinifera) in Parlier, California, was used for all experiments, and they were maintained on tomato plants (Solanum lycopersicum ‘Rutgers’) as previously described^47. Infective J2 juveniles were collected as described in ref. 47.

[6] = tested on: M. chitwoodi J2 larvae; assay: Meloidogyne chitwoodi in vitro larval mobility assay; assay type: in vivo; conditions: Meloidogyne chitwoodi, 48 h, 2 days, average of three replicates, read-out: % Immobile
Method: M. chitwoodi race 1 (the strain commonly found in the pacific northwest of the United States) was used for all experiments, and was maintained on tomato plants (Solanum lycopersicum ‘Rutgers’) as previously described^47. The microwell dose-response experiments were carried out similarly to previously described protocols^44,46. […] The chemicals were tested at 45 μM, and the final concentration of DMSO in each well was 0.5% (v/v). The wells were covered with a plastic adhesive strip, and the lids of the plates were sealed with parafilm. The plates were incubated at 25° C. for 2 days. The percent of worms that were immobile (% immobile) was quantified by counting the number of immobile worms after 2 days of incubation, dividing the number of immobile worms by the total number of worms in the well, and then multiplying by 100. […] The average % immobile value was calculated across the three replicates.

[7] = average of the two replicates, read-out: Average % Immobile
[8] = replicate 1, read-out: Replicate 1 % Immobile
[9] = replicate 2, read-out: Replicate 2 % Immobile
[10] = lowest concentration at which at least 20% of worms die, read-out: Minimum Lethal Concentration
[11] = same values in ppm, read-out: Minimum Lethal Concentration (ppm)

Row | SMILES | Normalized root mass (relative to DMSO control) [1] | Number of Hatched Eggs [2] | Number of Hatched Eggs z-score [2] | Replicate 1 z-score ([3]; replicate 1) | Replicate 2 z-score ([3]; replicate 2) | pest or weed control at 45 µM [3, 7] [%] | pest or weed control at 45 µM [3, 8] [%] | pest or weed control at 45 µM [3, 9] [%] | minimal effective concentration [4, 10] [µM] | minimal effective concentration [4, 11] [µg/mL] | pest or weed control at 45 µM [5] [%] | pest or weed control at 45 µM [6] [%]
1 | Clc1ccccc1-c1cn2ccsc2n1 [I-27] | 1.42 | 4 | [3.31] | [6.81] | [3.28] | 42 | 56 | 27.9 | 100 | 23.5 | 0 | –
2 | Clc1ccc(-c2cn3ccsc3n2)cc1Cl [I-31] | 1.25 | 1 | [4.30] | [2.33] | [4.78] | 35.1 | 34.1 | 36.2 | 6.25 | 1.7 | 18.1 | –
3 | Cc1c(-c2cccc(Cl)c2)nc2sccn12 [I-24] | 1.34 | – | – | [1.68] | [4.78] | 33.6 | 30.9 | 36.2 | 100 | 24.9 | 23.6 | –
4 | Cc1cn2cc(-c3ccccc3Cl)nc2s1 [I-30] | 1.30 | – | – | [8.34] | [5.62] | 52.1 | 63.5 | 40.8 | > 100 | > 24.9 | 16 | –
5 | Cc1cn2cc(-c3cccc(Cl)c3)nc2s1 [I-26] | 1.43 | – | – | [6.47] | [1.92] | 37.4 | 54.4 | 20.4 | 25 | 6.2 | 0 | –
6 | Fc1cccc(-c2cn3ccsc3n2)c1 [I-14] | 1.28 | 1 | [4.30] | [15.43] | [13.11] | ≥ 75 | 98.2 | 82.2 | 100 | 21.8 | 17.6 | –
7 | Cc1cn2cc(-c3ccccc3F)nc2s1 [I-21] | 1.24 | – | – | [5.78] | [5.62] | 45.9 | 51 | 40.8 | 50 | 11.6 | 24.4 | –
8 | Cc1csc2nc(-c3cccc(Cl)c3)cn12 [I-25] | 1.27 | 4 | [3.31] | – | – | – | – | – | > 100 | > 24.9 | 24.6 | –
9 | Cc1c(-c2ccccc2F)nc2sccn12 [I-19] | 1.27 | – | – | – | – | – | – | – | > 100 | > 23.2 | 16.6 | –
10 | O=C(NCCc1ncc(C(F)(F)F)cc1Cl)c1ccccc1C(F)(F)F [Fluopyram, fluopyram, reference compound] | – | 0 | [4.63] | [14.82] | [21.99] | 100 | 100 | 100 | – | – | – | 100
11 | Cc1c(-c2cccc(Br)c2)nc2sccn12 [I-35] | 1.26 | 2 | [3.97] | – | – | – | – | – | > 50 | 14.7 | 10.2 | –
12 | Cc1csc2nc(-c3cccc(F)c3)cn12 [I-16] | 1.15 | – | – | – | – | – | – | – | > 100 | > 23.2 | 0 | –
13 | Cc1cn2cc(-c3cccc(F)c3)nc2s1 [I-17] | 1.30 | 3 | [3.64] | – | – | – | – | – | 100 | 23.2 | 21.8 | –
14 | Cc1cn2cc(-c3ccccc3Br)nc2s1 [I-41] | 1.18 | – | – | [3.31] | [6.62] | 42.6 | 38.9 | 46.3 | > 100 | > 29.3 | 6.6 | –
15 | Cc1csc2nc(-c3ccccc3Cl)cn12 [I-29] | 1.14 | 4 | [3.31] | – | – | – | – | – | 100 | 24.9 | 15 | –
